Drawing on US20260070945A1, “MACROCYCLIC IMMUNOMODULATORS” (Bristol-Myers Squibb Company, priority 2022, published 2026), this text covers IC50 for eleven compounds.

The structures appear in SMILES notation. pIC50: −log10 of the molar value. *1 amine or outer side, *2 acyl side, *3 side chain or, on linkers, in order; H or OH if unused. Where a SMILES comes first, the peptide text is derived from it. Bridges are numbered along the chain shown (N, C = ends). [ ]: non-standard residue; d: D form. The star is where a group is joined. ξ: configuration not given here. Phe(4-COOH) = N[C@@H](Cc1ccc(C(=O)O)cc1)C(=O)O; Bip = N[C@@H](Cc1ccc(-c2ccccc2)cc1)C(=O)O; γGlu = O=C(O)[C@H](CCC(=O)[*:2])N[*:1]; βAsp = O=C(O)[C@H](CC(=O)[*:2])N[*:1]; aIle = CC[C@@H](C)[C@H](N)C(=O)O; 4Pal = N[C@@H](Cc1ccncc1)C(=O)O; Cha = N[C@@H](CC1CCCCC1)C(=O)O; Cit = NC(=O)NCCC[C@H](N)C(=O)O; Ile(3ξ) = CCC(C)[C@H](N)C(=O)O; Carboxymethyl = O=C(O)C*; NMeA = CN[C@@H](C)C(=O)O; Orn = NCCC[C@H](N)C(=O)O; dDap = NC[C@@H](N)C(=O)O; Aun = NCCCCCCCCCCC(=O)O; Dab = NCC[C@H](N)C(=O)O; AEEA = NCCOCCOCC(=O)O

T1 sequence (Q15116 25-288): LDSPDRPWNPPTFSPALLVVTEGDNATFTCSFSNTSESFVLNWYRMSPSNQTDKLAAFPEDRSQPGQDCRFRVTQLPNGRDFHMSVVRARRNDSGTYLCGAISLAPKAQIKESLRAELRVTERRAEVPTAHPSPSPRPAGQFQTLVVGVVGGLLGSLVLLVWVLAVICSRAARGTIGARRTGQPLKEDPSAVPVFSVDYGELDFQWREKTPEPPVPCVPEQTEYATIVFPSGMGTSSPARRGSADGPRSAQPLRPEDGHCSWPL

This assay concerns the target T1, PD-1/PD-L1 interaction (PE-labeled human PD-L1-Ig binding to Jurkat cell line over-expressing human PD-1) (Homo sapiens, UniProt Q15116).
T1 construct: expressed in transfected cells; host or cells: Jurkat
As to the kind of experiment: Jurkat-PD-1 Cell Binding High-Content Screening Assay (CBA). To be noted: Jurkat-hPD-1 cells, PE-labeled PD-L1-Ig 20 nM final; read-out: Jurkat HPD1 PDL1 IC50. The method, boiled down:
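Jurkat cells overexpressing human PD-1 (8×10^3/well, DMEM + 10% FCS) preincubated with compound 2 h at 37 °C, then PE-labelled human PD-L1-Ig (20 nM final) for 1 h. Cells fixed in paraformaldehyde with Hoechst 33342; bound PD-L1 quantified by high-content imaging.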
In the case of `CC[C@@H](C)[C@@H]1NC(=O)[C@H](Cc2ccc(-c3ccccc3)cc2)NC(=O)[C@H](C(C)C)NC(=O)[C@H](Cc2c[nH]c3ccccc23)NC(=O)[C@H](CC(=O)O)NC(=O)[C@H](Cc2ccc(C(=O)O)cc2)NC(=O)[C@H](Cc2ccc(OCC(=O)O)cc2)NC(=O)CSC[C@@H](C(=O)N[C@H](CN)C(=O)NCCOCCOCC(=O)N[C@@H](CCC(=O)NCCOCCOCC(=O)N[C@@H](CCC(=O)NCCOCCOCC(=O)N[C@@H](CCCN)C(=O)NCCCCCCCCCCC(=O)O)C(=O)O)C(=O)O)NC(=O)[C@H](CO)NC(=O)[C@H](C(C)C)NC(=O)[C@H](CC2CCCCC2)NC(=O)[C@H](CC(N)=O)NC(=O)[C@@H](CC(C)C)NC(=O)[C@H](C)N(C)C1=O` [Example 2018] ({CH2CO}-Y(Carboxymethyl)[Phe(4-COOH)]DWV[Bip][aIle][NMeA][dL]N[Cha]VSC[dDap][AEEA][γGlu][AEEA][γGlu][AEEA][Orn][Aun]-OH; thioether N-14), the pIC50 (commonly the IC50 on a negative log10 scale, so that one unit is a factor of ten) is 7.13.
As to `CC[C@@H](C)[C@@H]1NC(=O)[C@H](Cc2ccc(-c3ccccc3)cc2)NC(=O)[C@H](C(C)C)NC(=O)[C@H](Cc2c[nH]c3ccccc23)NC(=O)[C@H](CC(=O)O)NC(=O)[C@H](Cc2ccc(OCC(=O)O)cc2)NC(=O)[C@H](Cc2ccncc2)NC(=O)CSC[C@@H](C(=O)NCCOCCOCC(=O)N[C@@H](CCC(=O)NCCOCCOCC(=O)N[C@@H](CCC(=O)NCCOCCOCC(=O)N[C@@H](CCCN)C(=O)NCCCCCCCCCCC(=O)O)C(=O)O)C(=O)O)NC(=O)[C@H](CO)NC(=O)[C@H](C(C)C)NC(=O)[C@H](CC2CCCCC2)NC(=O)[C@H](CC(N)=O)NC(=O)[C@@H](CC(C)C)NC(=O)[C@H](C)N(C)C1=O` [Example 2019] ({CH2CO}-[4Pal]Y(Carboxymethyl)DWV[Bip][aIle][NMeA][dL]N[Cha]VSC[AEEA][γGlu][AEEA][γGlu][AEEA][Orn][Aun]-OH; thioether N-14), the pIC50 is 7.60.
With `CC[C@@H](C)[C@@H]1NC(=O)[C@H](Cc2ccc(-c3ccccc3)cc2)NC(=O)[C@H](C(C)C)NC(=O)[C@H](Cc2c[nH]c3ccccc23)NC(=O)[C@H](CC(=O)O)NC(=O)[C@H](Cc2ccc(O)cc2)NC(=O)[C@H](Cc2ccncc2)NC(=O)CSC[C@@H](C(=O)N[C@H](CC(N)=O)C(=O)NCCOCCOCC(=O)N[C@@H](CCC(=O)NCCOCCOCC(=O)N[C@@H](CCC(=O)NCCOCCOCC(=O)N[C@@H](CCCN)C(=O)NCCCCCCCCCCC(=O)O)C(=O)O)C(=O)O)NC(=O)[C@H](CO)NC(=O)[C@H](C(C)C)NC(=O)[C@H](CC2CCCCC2)NC(=O)[C@H](CC(N)=O)NC(=O)[C@@H](CC(C)C)NC(=O)[C@H](C)N(C)C1=O` [Example 2020] ({CH2CO}-[4Pal]YDWV[Bip][aIle][NMeA][dL]N[Cha]VSC[dN][AEEA][γGlu][AEEA][γGlu][AEEA][Orn][Aun]-OH; thioether N-14), the pIC50 is 7.52.
In the case of `CC[C@@H](C)[C@@H]1NC(=O)[C@H](Cc2ccc(-c3ccccc3)cc2)NC(=O)[C@H](C(C)C)NC(=O)[C@H](Cc2c[nH]c3ccccc23)NC(=O)[C@H](CC(=O)O)NC(=O)[C@H](Cc2ccc(C(=O)O)cc2)NC(=O)[C@H](Cc2ccc(OCC(=O)O)cc2)NC(=O)CSC[C@@H](C(=O)N[C@@H](CC(N)=O)C(=O)NCCOCCOCC(=O)N[C@@H](CCC(=O)NCCOCCOCC(=O)N[C@@H](CCC(=O)NCCOCCOCC(=O)N[C@@H](CCCN)C(=O)NCCCCCCCCCCC(=O)O)C(=O)O)C(=O)O)NC(=O)[C@H](CO)NC(=O)[C@H](C(C)C)NC(=O)[C@H](CC2CCCCC2)NC(=O)[C@H](CC(N)=O)NC(=O)[C@@H](CC(C)C)NC(=O)[C@H](C)N(C)C1=O` [Example 2021] ({CH2CO}-Y(Carboxymethyl)[Phe(4-COOH)]DWV[Bip][aIle][NMeA][dL]N[Cha]VSCN[AEEA][γGlu][AEEA][γGlu][AEEA][Orn][Aun]-OH; thioether N-14), the pIC50 was 7.31.
The result for `CC(C)C[C@@H]1NC(=O)[C@H](Cc2c[nH]c3ccccc23)NC(=O)[C@H](CC(=O)O)NC(=O)[C@H](Cc2ccc(OCC(=O)O)cc2)NC(=O)[C@H](Cc2ccncc2)NC(=O)CSC[C@@H](C(=O)N[C@@H](CC(N)=O)C(=O)N[C@@H](CC(=O)NCCOCCOCC(=O)NCCCCCCCCCCC(=O)O)C(=O)O)NC(=O)[C@H](CO)NC(=O)[C@H](C(C)C)NC(=O)[C@H](CC2CCCCC2)NC(=O)[C@H](CC(N)=O)NC(=O)[C@@H](CC(C)C)NC(=O)[C@H](C)N(C)C(=O)[C@H](C(C)C)NC(=O)[C@H](Cc2ccc(-c3ccccc3)cc2)NC1=O` [Example 2022] ({CH2CO}-[4Pal]Y(Carboxymethyl)DWL[Bip]V[NMeA][dL]N[Cha]VSCN[βAsp][AEEA][Aun]-OH; thioether N-14) reads 6.89; that for `CC[C@@H](C)[C@@H]1NC(=O)[C@H](Cc2ccc(-c3ccccc3)cc2)NC(=O)[C@H](C(C)C)NC(=O)[C@H](Cc2c[nH]c3ccccc23)NC(=O)[C@H](CC(=O)O)NC(=O)[C@H](Cc2ccc(O)cc2)NC(=O)[C@H](Cc2ccncc2)NC(=O)CSC[C@@H](C(=O)N[C@H](CCCCN)C(=O)NCCOCCOCC(=O)NCCCCCCCCCCC(=O)O)NC(=O)[C@H](CO)NC(=O)[C@H](C(C)C)NC(=O)[C@H](CC2CCCCC2)NC(=O)[C@H](CCN)NC(=O)[C@@H](CC(C)C)NC(=O)[C@H](C)N(C)C1=O` [Example 2023] ({CH2CO}-[4Pal]YDWV[Bip][aIle][NMeA][dL][Dab][Cha]VSC[dK][AEEA][Aun]-OH; thioether N-14), 7.32.
Consider `CC[C@@H](C)[C@@H]1NC(=O)[C@H](Cc2ccc(-c3ccccc3)cc2)NC(=O)[C@H](C(C)C)NC(=O)[C@H](Cc2c[nH]c3ccccc23)NC(=O)[C@H](CC(=O)O)NC(=O)[C@H](Cc2ccc(OCC(=O)O)cc2)NC(=O)[C@H](CCCNC(N)=O)NC(=O)CSC[C@@H](C(=O)N[C@H](CC(N)=O)C(=O)NCCOCCOCC(=O)N[C@@H](CCC(=O)NCCOCCOCC(=O)N[C@@H](CCC(=O)NCCOCCOCC(=O)N[C@@H](CCCN)C(=O)NCCCCCCCCCCC(=O)O)C(=O)O)C(=O)O)NC(=O)[C@H](CO)NC(=O)[C@H](C(C)C)NC(=O)[C@H](CC2CCCCC2)NC(=O)[C@H](CC(N)=O)NC(=O)[C@@H](CC(C)C)NC(=O)[C@H](C)N(C)C1=O` [Example 2024] ({CH2CO}-[Cit]Y(Carboxymethyl)DWV[Bip][aIle][NMeA][dL]N[Cha]VSC[dN][AEEA][γGlu][AEEA][γGlu][AEEA][Orn][Aun]-OH; thioether N-14), for which the pIC50 was 7.42.
With `CC[C@@H](C)[C@@H]1NC(=O)[C@H](Cc2ccc(-c3ccccc3)cc2)NC(=O)[C@H](C(C)C)NC(=O)[C@H](Cc2c[nH]c3ccccc23)NC(=O)[C@H](CC(=O)O)NC(=O)[C@H](Cc2ccc(O)cc2)NC(=O)[C@H](CCCNC(N)=O)NC(=O)CSC[C@@H](C(=O)N[C@H](CC(N)=O)C(=O)NCCOCCOCC(=O)N[C@@H](CCC(=O)NCCOCCOCC(=O)N[C@@H](CCC(=O)NCCOCCOCC(=O)N[C@@H](CCCN)C(=O)NCCCCCCCCCCC(=O)O)C(=O)O)C(=O)O)NC(=O)[C@H](CO)NC(=O)[C@H](C(C)C)NC(=O)[C@H](CC2CCCCC2)NC(=O)[C@H](CC(N)=O)NC(=O)[C@@H](CC(C)C)NC(=O)[C@H](C)N(C)C1=O` [Example 2025] ({CH2CO}-[Cit]YDWV[Bip][aIle][NMeA][dL]N[Cha]VSC[dN][AEEA][γGlu][AEEA][γGlu][AEEA][Orn][Aun]-OH; thioether N-14) the figure was 7.30.
The result for `CC(C)C[C@@H]1NC(=O)[C@H](Cc2c[nH]c3ccccc23)NC(=O)[C@H](CC(=O)O)NC(=O)[C@H](Cc2ccc(OCC(=O)O)cc2)NC(=O)[C@H](CCCNC(N)=O)NC(=O)CSC[C@@H](C(=O)N[C@@H](CC(N)=O)C(=O)N[C@@H](CC(=O)NCCOCCOCC(=O)NCCCCCCCCCCC(=O)O)C(=O)O)NC(=O)[C@H](CO)NC(=O)[C@H](C(C)C)NC(=O)[C@H](CC2CCCCC2)NC(=O)[C@H](CC(N)=O)NC(=O)[C@@H](CC(C)C)NC(=O)[C@H](C)N(C)C(=O)[C@H](C(C)C)NC(=O)[C@H](Cc2ccc(-c3ccccc3)cc2)NC1=O` [Example 2026] ({CH2CO}-[Cit]Y(Carboxymethyl)DWL[Bip]V[NMeA][dL]N[Cha]VSCN[βAsp][AEEA][Aun]-OH; thioether N-14) reads 6.62; that for `CC[C@@H](C)[C@@H]1NC(=O)[C@H](Cc2ccc(-c3ccccc3)cc2)NC(=O)[C@H](C(C)C)NC(=O)[C@H](Cc2c[nH]c3ccccc23)NC(=O)[C@H](CC(=O)O)NC(=O)[C@H](Cc2ccc(O)cc2)NC(=O)[C@H](CCCNC(N)=O)NC(=O)CSC[C@@H](C(=O)N[C@H](CCCCN)C(=O)NCCOCCOCC(=O)NCCCCCCCCCCC(=O)O)NC(=O)[C@H](CO)NC(=O)[C@H](C(C)C)NC(=O)[C@H](CC2CCCCC2)NC(=O)[C@H](CCN)NC(=O)[C@@H](CC(C)C)NC(=O)[C@H](C)N(C)C1=O` [Example 2027] ({CH2CO}-[Cit]YDWV[Bip][aIle][NMeA][dL][Dab][Cha]VSC[dK][AEEA][Aun]-OH; thioether N-14), 7.41.
For `CCC(C)[C@@H]1NC(=O)[C@H](Cc2ccc(-c3ccccc3)cc2)NC(=O)[C@H](C(C)C)NC(=O)[C@H](Cc2c[nH]c3ccccc23)NC(=O)[C@H](CC(=O)O)NC(=O)[C@H](Cc2ccc(OCC(=O)O)cc2)NC(=O)[C@H](Cc2ccncc2)NC(=O)CSC[C@@H](C(=O)N[C@H](CC(N)=O)C(=O)NCCOCCOCC(=O)NCCCCCCCCCCC(=O)O)NC(=O)[C@H](CO)NC(=O)[C@H](C(C)C)NC(=O)[C@H](CC2CCCCC2)NC(=O)[C@H](CCN)NC(=O)[C@@H](CC(C)C)NC(=O)[C@H](C)N(C)C1=O` (stereo partly drawn) [Example 2028] ({CH2CO}-[4Pal]Y(Carboxymethyl)DWV[Bip][Ile(3ξ)][NMeA][dL][Dab][Cha]VSC[dN][AEEA][Aun]-OH; thioether N-14), the pIC50 was 8.00.
